US9422240B2, “Partially saturated nitrogen-containing heterocyclic compound” (TAISHO PHARMACEUTICAL CO., LTD, priority 2012, dated 2016)
pIC50: −log10 of the molar value.

The compounds below were run against human PHD2 (Homo sapiens (Human), UniProt Q9GZT9) (assay: Test 2: human PHD2 inhibitory activity, fluorescence polarization assay of HIF-1α peptide proline hydroxylation). Conditions: human PHD2, fluorescence polarization assay, 20-min incubation at 30° C.
Type: biochemical
Method: (1) Expression and Preparation of Human PHD2
A registered sequence of human PHD2 (NM_022051) was introduced into pcDNA3.1/Hygro(+) vector (Invitrogen), and the sequence was verified. […] The suspension of disrupted cells was centrifuged at 4° C. and 100,000×g for 30 minutes and the supernatant was recovered as a cell lysate.
(2) Measurement of Human PHD2 Inhibitory Activity
The activity of human PHD2 enzyme was measured with a substrate which is a 19-residue partial peptide based on the sequence of HIF-1α; specifically, the hydroxylation of a proline residue in the peptide was measured by FP (Fluorescence Polarization).
A test compound and the substrate solution were preliminarily added onto 384-well plates and reaction was initiated by adding a human PHD2 enzyme solution (40 ng/well). After 20-min incubation at 30° C., an EDTA-containing quench solution was added and the amount of the proline residues hydroxylated via binding to an added HIF—OH antibody solution was quantified by fluorescence polarization.
The fluorescence polarization of each well was measured and the human PHD2 inhibitory activity of each test compound was calculated on the basis of the values for the test compound-free group.

Sequence of human PHD2 (Q9GZT9 whole entry): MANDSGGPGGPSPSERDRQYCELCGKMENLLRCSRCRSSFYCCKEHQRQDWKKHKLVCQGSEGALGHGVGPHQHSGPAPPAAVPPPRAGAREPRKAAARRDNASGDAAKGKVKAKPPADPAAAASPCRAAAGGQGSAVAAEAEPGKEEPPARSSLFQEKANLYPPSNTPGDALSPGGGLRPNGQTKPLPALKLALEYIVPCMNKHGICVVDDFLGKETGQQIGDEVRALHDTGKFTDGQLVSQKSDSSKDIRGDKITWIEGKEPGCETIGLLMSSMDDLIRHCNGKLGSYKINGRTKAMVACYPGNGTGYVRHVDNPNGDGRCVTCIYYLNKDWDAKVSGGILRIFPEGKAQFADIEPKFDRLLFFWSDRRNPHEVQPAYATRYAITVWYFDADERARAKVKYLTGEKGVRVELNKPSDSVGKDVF

| pIC50 | SMILES |
| --- | --- |
| 7.27 | Cc1ccc(Oc2cnc(CN3CCC(O)=C(C(=O)NCC(=O)O)C3=O)cn2)cc1 [Ex. 1-385] |
| 7.32 | Cc1ccc(Oc2ccc(CN3CCC(O)=C(C(=O)NCC(=O)O)C3=O)cc2)cc1C [Ex. 1-386] |
| 7.59 | Cc1ccc(Oc2ncc(CN3CCC(O)=C(C(=O)NCC(=O)O)C3=O)cc2Cl)cc1 [Ex. 1-392] |
| 7.49 | Cc1ccc(Oc2ncc(CN3CCC(O)=C(C(=O)NCC(=O)O)C3=O)cc2F)cc1 [Ex. 1-393] |
| 7.25 | O=C(O)CNC(=O)C1=C(O)CCN(Cc2ccc(Oc3ccc(C4CC4)cn3)cc2)C1=O [Ex. 1-404] |
| 7.14 | Cc1ccc(Oc2ncc(CN3CCC(O)=C(C(=O)NCC(=O)O)C3=O)cn2)cc1 [Ex. 1-408] |
| 7.60 | Cc1cc(CN2CCC(O)=C(C(=O)NCC(=O)O)C2=O)cnc1Oc1ccc(Cl)cc1 [Ex. 1-409] |
| 7.41 | O=C(O)CNC(=O)C1=C(O)CCN(Cc2cnc(Oc3ccc(Cl)cc3)cn2)C1=O [Ex. 1-440] |
| 7.68 | O=C(O)CNC(=O)C1=C(O)CCN(Cc2cnc(Oc3ccc(C4CC4)cc3)cn2)C1=O [Ex. 1-443] |

Same assay, conditions: test compound's concentration 1 μM; Test 2, fluorescence polarization assay

| Percent inhibition (% at 1 μM) | SMILES |
| --- | --- |
| 82% | O=C(O)CNC(=O)C1=C(O)CCN(CC2CCC(Oc3ccccc3)CC2)C1=O (stereo not drawn) [Ex. 1-391] |

Same assay, conditions: test compound's concentration 1 μM; Test 2, fluorescence polarization assay; read-out: Percent inhibition (% at 1 μM)

| SMILES | inhibition at 1 µM |
| --- | --- |
| Cc1cc(CN2CCC(O)=C(C(=O)NCC(=O)O)C2=O)ccc1OCc1ccccc1 [Ex. 1-381] | 92% |
| O=C(O)CNC(=O)C1=C(O)CCN(Cc2ccc(OCCC(F)(F)F)cc2)C1=O [Ex. 1-382] | 83% |
| Cc1cc(CN2CCC(O)=C(C(=O)NCC(=O)O)C2=O)ccc1OCCC(F)(F)F [Ex. 1-383] | 83% |
| O=C(O)CNC(=O)C1=C(O)CCN(Cc2ccc(OCCC(F)(F)F)c(F)c2)C1=O [Ex. 1-384] | 82% |
| Cc1ccc(COc2ccc(CN3CCC(O)=C(C(=O)NCC(=O)O)C3=O)cc2F)cc1 [Ex. 1-387] | 93% |
| Cc1cc(CN2CCC(O)=C(C(=O)NCC(=O)O)C2=O)ccc1OCc1ccc(F)cc1 [Ex. 1-388] | 92% |
| Cc1cc(CN2CCC(O)=C(C(=O)NCC(=O)O)C2=O)ccc1OCc1ccc(OC(F)(F)F)cc1 [Ex. 1-389] | 69% |
| O=C(O)CNC(=O)C1=C(O)CCN(CC2CCC(Oc3ccccc3)CC2)C1=O (stereo not drawn) [Ex. 1-390] | 89% |
| Cc1nc(COc2ccc(CN3CCC(O)=C(C(=O)NCC(=O)O)C3=O)cc2Cl)c(C)o1 [Ex. 1-394] | 83% |
| O=C(O)CNC(=O)C1=C(O)CCN(CC2(c3ccccc3)CC2)C1=O [Ex. 1-399] | 55% |
| O=C(O)CNC(=O)C1=C(O)CCN(C[C@H]2CC[C@H](Oc3ccc(F)cc3)CC2)C1=O [Ex. 1-402] | 109% |
| O=C(O)CNC(=O)C1=C(O)CCN(C[C@H]2CC[C@H](Oc3ccc(C(F)(F)F)cc3)CC2)C1=O [Ex. 1-403] | 102% |
| Cc1cc(CN2CCC(O)=C(C(=O)NCC(=O)O)C2=O)cnc1OCC(F)(F)F [Ex. 1-410] | 82% |
| Cc1cc(CN2CCC(O)=C(C(=O)NCC(=O)O)C2=O)cnc1OCCC1CC1 [Ex. 1-411] | 90% |
| O=C(O)CNC(=O)C1=C(O)CCN(C[C@H]2CC[C@H](Oc3ccc(F)cn3)CC2)C1=O [Ex. 1-412] | 87% |
| CC(C)(CN1CCC(O)=C(C(=O)NCC(=O)O)C1=O)c1ccc(Cl)cc1 [Ex. 1-413] | 75% |
| O=C(O)CNC(=O)C1=C(O)CCN(Cc2ccc(COc3ccccc3)cc2)C1=O [Ex. 1-416] | 95% |
| O=C(O)CNC(=O)C1=C(O)CCN(Cc2cnc(OCCC3CC3)c(Cl)c2)C1=O [Ex. 1-420] | 92% |
| COc1cccc(-c2ccc(CN3CCC(O)=C(C(=O)NCC(=O)O)C3=O)cc2)n1 [Ex. 1-421] | 99% |
| O=C(O)CNC(=O)C1=C(O)CCN(Cc2ccc(COc3ccc(C(F)(F)F)nc3)cc2)C1=O [Ex. 1-423] | 96% |
| COc1cccnc1-c1ccc(CN2CCC(O)=C(C(=O)NCC(=O)O)C2=O)cc1 [Ex. 1-425] | 90% |

| SMILES | inhibition at 1 µM |
| --- | --- |
| O=C(O)CNC(=O)C1=C(O)CCN(CC2CCC(OCc3ccc(Cl)cc3)CC2)C1=O (stereo not drawn) [Ex. 1-427] | 95% |
| O=C(O)CNC(=O)C1=C(O)CCN(C[C@H]2CC[C@H](Oc3ccc(Cl)cc3)CC2)C1=O [Ex. 1-428] | 100% |
| O=C(O)CNC(=O)C1=C(O)CCN(C[C@H]2CC[C@H](OCc3ccc(Cl)cc3)CC2)C1=O [Ex. 1-429] | 96% |
| Cc1ccc(O[C@H]2CC[C@H](CN3CCC(O)=C(C(=O)NCC(=O)O)C3=O)CC2)cc1 [Ex. 1-430] | 95% |
| CCc1ccc(O[C@H]2CC[C@H](CN3CCC(O)=C(C(=O)NCC(=O)O)C3=O)CC2)cc1 [Ex. 1-431] | 99% |
| O=C(O)CNC(=O)C1=C(O)CCN(C[C@H]2CC[C@H](Oc3ccc(Cl)cn3)CC2)C1=O [Ex. 1-432] | 93% |
| O=C(O)CNC(=O)C1=C(O)CCN(C[C@H]2CC[C@@H](Oc3ccc(F)cn3)CC2)C1=O [Ex. 1-433] | 76% |
| O=C(O)CNC(=O)C1=C(O)CCN(C[C@H]2CC[C@@H](Oc3ccc(F)cc3)CC2)C1=O [Ex. 1-434] | 85% |
| Cc1ccc(O[C@H]2CC[C@H](CN3CCC(O)=C(C(=O)NCC(=O)O)C3=O)CC2)nc1 [Ex. 1-435] | 87% |
| O=C(O)CNC(=O)C1=C(O)CCN(C[C@H]2CC[C@H](Oc3ccc(C(F)(F)F)cn3)CC2)C1=O [Ex. 1-437] | 92% |
| O=C(O)CNC(=O)C1=C(O)CCN(C[C@H]2CC[C@H](OCc3ccc(F)cc3)CC2)C1=O [Ex. 1-438] | 90% |
| O=C(O)CNC(=O)C1=C(O)CCN(C[C@H]2CC[C@H](Oc3ccccn3)CC2)C1=O [Ex. 1-439] | 81% |
| O=C(O)CNC(=O)C1=C(O)CCN(C[C@H]2CC[C@H](OCc3ccccc3)CC2)C1=O [Ex. 1-444] | 88% |
| O=C(O)CNC(=O)C1=C(O)CCN(C[C@H]2CC[C@H](OCC3CC3)CC2)C1=O [Ex. 1-445] | 75% |
| O=C(O)CNC(=O)C1=C(O)CCN(C[C@H]2CC[C@H](OCCc3ccccc3)CC2)C1=O [Ex. 1-447] | 98% |
| O=C(O)CNC(=O)C1=C(O)CCN(C[C@H]2CC[C@H](OCC3CCCC3)CC2)C1=O [Ex. 1-448] | 92% |
| CCc1ccc(O[C@H]2CC[C@H](CN3CCC(O)=C(C(=O)NCC(=O)O)C3=O)CC2)nc1 [Ex. 1-449] | 99% |
| Cc1ccc(CO[C@H]2CC[C@H](CN3CCC(O)=C(C(=O)NCC(=O)O)C3=O)CC2)cc1 [Ex. 1-450] | 97% |
| O=C(O)CNC(=O)C1=C(O)CCN(C[C@H]2CC[C@H](OC3CCC3)CC2)C1=O [Ex. 1-451] | 82% |
| CC(Cc1ccc(Cl)cc1)N1CCC(O)=C(C(=O)NCC(=O)O)C1=O (stereo not drawn) [Ex. 1-452] | 67% |

The next lines start with the values.

| inhibition at 1 µM | SMILES |
| --- | --- |
| 93% | Cc1ccc(Oc2cnc(CN3CCC(O)=C(C(=O)NCC(=O)O)C3=O)cn2)cc1 [Ex. 1-385] |
| 92% | Cc1ccc(Oc2ccc(CN3CCC(O)=C(C(=O)NCC(=O)O)C3=O)cc2)cc1C [Ex. 1-386] |
| 98% | Cc1ccc(Oc2ncc(CN3CCC(O)=C(C(=O)NCC(=O)O)C3=O)cc2Cl)cc1 [Ex. 1-392] |
| 98% | Cc1ccc(Oc2ncc(CN3CCC(O)=C(C(=O)NCC(=O)O)C3=O)cc2F)cc1 [Ex. 1-393] |
| 90% | O=C(O)CNC(=O)C1=C(O)CCN(C[C@@H]2CC[C@@H](c3ccccc3)C2)C1=O [Ex. 1-395] |
| 89% | CC1(COc2ccc(CN3CCC(O)=C(C(=O)NCC(=O)O)C3=O)cn2)CC1 [Ex. 1-396] |
| 91% | Cc1ccc(COc2ccc(CN3CCC(O)=C(C(=O)NCC(=O)O)C3=O)cc2)cn1 [Ex. 1-398] |
| 90% | Cc1ncccc1COc1ccc(CN2CCC(O)=C(C(=O)NCC(=O)O)C2=O)cc1 [Ex. 1-401] |
| 96% | O=C(O)CNC(=O)C1=C(O)CCN(Cc2ccc(Oc3ccc(C4CC4)cn3)cc2)C1=O [Ex. 1-404] |
| 90% | O=C(O)CNC(=O)C1=C(O)CCN(Cc2ccc(OCc3ccc(Cl)cn3)cc2)C1=O [Ex. 1-405] |
| 86% | Cc1cnc(COc2ccc(CN3CCC(O)=C(C(=O)NCC(=O)O)C3=O)cc2)s1 [Ex. 1-406] |
| 85% | O=C(O)CNC(=O)C1=C(O)CCN(Cc2ccc(OCc3cn4ccsc4n3)cc2)C1=O [Ex. 1-407] |
| 91% | Cc1ccc(Oc2ncc(CN3CCC(O)=C(C(=O)NCC(=O)O)C3=O)cn2)cc1 [Ex. 1-408] |
| 98% | Cc1cc(CN2CCC(O)=C(C(=O)NCC(=O)O)C2=O)cnc1Oc1ccc(Cl)cc1 [Ex. 1-409] |
| 96% | O=C(O)CNC(=O)C1=C(O)CCN(Cc2ccc(-c3ccc(C4CC4)nc3)cc2)C1=O [Ex. 1-414] |
| 94% | Cc1ccc(OCc2ccc(CN3CCC(O)=C(C(=O)NCC(=O)O)C3=O)cc2)cn1 [Ex. 1-415] |
| 99% | Cc1ccc(OCc2ccc(CN3CCC(O)=C(C(=O)NCC(=O)O)C3=O)cc2)cc1 [Ex. 1-417] |
| 98% | Cc1ccc(COc2ccc(CN3CCC(O)=C(C(=O)NCC(=O)O)C3=O)cn2)cc1 [Ex. 1-418] |
| 98% | O=C(O)CNC(=O)C1=C(O)CCN(Cc2ccc(OCc3ccc(Cl)cc3)nc2)C1=O [Ex. 1-419] |
| 100% | O=C(O)CNC(=O)C1=C(O)CCN(Cc2ccc(-c3ccc(Cl)cn3)cc2)C1=O [Ex. 1-422] |
| 97% | O=C(O)CNC(=O)C1=C(O)CCN(Cc2ccc(COc3ccc(C(F)(F)F)cn3)cc2)C1=O [Ex. 1-424] |
| 88% | COc1ccc(-c2ccc(CN3CCC(O)=C(C(=O)NCC(=O)O)C3=O)cc2)nc1 [Ex. 1-426] |
| 85% | COc1ccnc(-c2ccc(CN3CCC(O)=C(C(=O)NCC(=O)O)C3=O)cc2)c1 [Ex. 1-436] |
| 98% | O=C(O)CNC(=O)C1=C(O)CCN(Cc2cnc(Oc3ccc(Cl)cc3)cn2)C1=O [Ex. 1-440] |
| 98% | O=C(O)CNC(=O)C1=C(O)CCN(C[C@H]2CC[C@H](Oc3ccc(C4CC4)cc3)CC2)C1=O [Ex. 1-442] |
| 101% | O=C(O)CNC(=O)C1=C(O)CCN(Cc2cnc(Oc3ccc(C4CC4)cc3)cn2)C1=O [Ex. 1-443] |
| 94% | O=C(O)CNC(=O)C1=C(O)CCN(C[C@H]2CC[C@H](Oc3ccc(C4CC4)cn3)CC2)C1=O [Ex. 1-446] |
